The text below walks through data of patent US20010027209A1, “Method and composition for treating and preventing mycobacterium infections” (Sarawak Medichem Pharmaceuticals, Inc., priority 1998, published 2001).

Values after ≈ are worked out from the molar mass of the structure shown. Values joined by “and” are separate entries in the source; they are usually repeats but may differ in a detail not shown here. Identical values can stand only once. Like-named read-outs stand apart in the source and are kept apart here.

Experiment [1] deals with Mycobacterium tuberculosis H37Rv. Kind of experiment: in vitro primary screening assay in BACTEC 12B medium, BACTEC 460 radiometric system. The format is cell-based. Particulars: for MIC: M. tuberculosis H37Rv; for inhibition at 12.5 µg/mL: H37RV.
Another experiment has as its system Mtb. Particulars: against Mtb, background section; cited from earlier work.
The subject of another experiment is M. tuberculosis H37Rv. Kind of experiment: actual minimum inhibitory concentration (MIC) at lower concentrations, BACTEC 460. Type of experiment: cell-based. To be noted: Mycobacterium tuberculosis, lowest concentration inhibiting 99% of the inoculum.
The mark [2] stands for this setting: table of Example 38, 12.5 μg/mL.
[3] abbreviates: Mycobacterium tuberculosis, concentration 12.5 μg/mL, BACTEC 12B medium, read-out: inhibition against Mtb H37Rv.
The mark [4] stands for this setting: Mycobacterium tuberculosis, table of Example 38, 12.5 μg/mL, read-out: % Inhibition.
[5] abbreviates: Mycobacterium tuberculosis, table of Example 38, read-out: MIC.
Where [6] appears, read: concentration 12.5 μg/mL, BACTEC 12B medium.

As for `CCCc1cc(=O)oc2c3c(c4c(c12)OC(C)(C)CC4)OC(C)C(C)C3=O` (racemic) [(±)-Trans-dihydroketone, (±)-10,11-trans-4-Propyl-7,8,10,11-tetrahydro-6,6,10,11-tetramethyl-2 H,6 H,12 H-benzo[1,2-b:3,4-b′:5,6-b″]tripyran-2,12-dione], the “% Inhibition” value in experiment [1] (setting [2]) amounted to 43%. Moreover, the “MIC” value in experiment [1] (table of Example 38) was under 12.5 µg/mL.

On to `CCCc1cc(=O)oc2c3c(c4c(c12)OC(C)(C)C=C4)OC(C)C(C)C3=O` (racemic) [(±)-Trans-ketone, 10,11-trans-dihydro-4-propyl-6,6,10,11-tetramethyl-2 H,6 H,12 H-benzo[1,2-b:3,4b′:5,6-b″]-tripyran-2,12-dione], for which the “% Inhibition” value in experiment [1] (setting [2]) amounted to 59%. In experiment [1] (table of Example 38), the “MIC” value was under 12.5 µg/mL. On to `CCCc1cc(=O)oc2c3c(c4c(c12)OC(C)(C)C=C4)OC(C)C(C)C3=O` (single isomer, unassigned; (-)) [(−)-Trans-ketone], for which the “% Inhibition” value in experiment [1] (setting [2]) is reported as 78%. The “MIC” value in experiment [1] (table of Example 38) was under 12.5 µg/mL. As to `CCCc1cc(=O)oc2c3c(c4c(c12)OC(C)(C)C=C4)O[C@@H](C)[C@H](C)[C@@H]3O` [Costatolide, (−)-calanolide B], the inhibition at 12.5 µg/mL in experiment [1] (setting [3]) and in experiment [1] (setting [4]) was 99% in each case. The MIC in experiment [1] (setting [5]) is under 12.5 µg/mL. As for `NC(=O)c1cnccn1` [Pyrazinamide], in the experiment on Mtb, the MIC was 20 µg/mL (≈ 162 µM). On to `C[C@H]1[C@H](C)Oc2c3c(c4c(-c5ccccc5)cc(=O)oc4c2[C@H]1O)OC(C)(C)C=C3` [Soulattrolide], for which the inhibition at 12.5 µg/mL in experiment [1] (setting [3]) and in experiment [1] (setting [4]) was 99% each time. For the same compound, the MIC in experiment [1] (setting [5]) is under 12.5 µg/mL. For `CO[C@H]1/C=C/O[C@@]2(C)Oc3c(C)c(O)c4c(O)c(c(/C=N/N5CCN(C)CC5)c(O)c4c3C2=O)NC(=O)/C(C)=C\C=C\[C@H](C)[C@H](O)[C@@H](C)[C@@H](O)[C@@H](C)[C@H](OC(C)=O)[C@@H]1C` [rifampicin], in the experiment on M. tuberculosis H37Rv, the MIC is 0.06 µg/mL (≈ 0.0729 µM). Regarding (+)-Calanolide A, the “inhibition against Mtb H37Rv” value in experiment [1] (setting [6]) is 98% and 96%.

In the case of “(−)-7,8-dihydrosoulattrolide [(−)-7,8-Dihydrosoulatrolide]”, the “inhibition against Mtb H37Rv” value in experiment [1] (setting [6]) was found to be 99%. For the same compound, the “% Inhibition” value in experiment [1] (setting [2]) is recorded as 99%. For the same compound, the “MIC” value in experiment [1] (table of Example 38) is under 12.5 µg/mL. With (−)-Calanolide A, the “inhibition against Mtb H37Rv” value in experiment [1] (setting [6]) turned out to be 98%.
